Test results reported in US8450527B2, “Amine derivative compounds for treating ophthalmic diseases and disorders” (Acucela Inc., priority 2007, dated 2013).

The molecules below were run against T1, isomerase (Mus musculus, UniProt Q91ZQ5) (assay: In vivo murine isomerase assay (recovery of 11-cis-retinal after photobleaching)). Conditions: CD1 male mice, single oral dose 1 mg/kg, photobleaching 4 h post dosing.
T1 construct: The recovery of 11-cis-retinal after bleaching can be used to estimate the activity of isomerase in vivo; from tissue; host or cells: eye (RPE) of living CD-1 albino male mice
T1 sequence (Q91ZQ5 1-533): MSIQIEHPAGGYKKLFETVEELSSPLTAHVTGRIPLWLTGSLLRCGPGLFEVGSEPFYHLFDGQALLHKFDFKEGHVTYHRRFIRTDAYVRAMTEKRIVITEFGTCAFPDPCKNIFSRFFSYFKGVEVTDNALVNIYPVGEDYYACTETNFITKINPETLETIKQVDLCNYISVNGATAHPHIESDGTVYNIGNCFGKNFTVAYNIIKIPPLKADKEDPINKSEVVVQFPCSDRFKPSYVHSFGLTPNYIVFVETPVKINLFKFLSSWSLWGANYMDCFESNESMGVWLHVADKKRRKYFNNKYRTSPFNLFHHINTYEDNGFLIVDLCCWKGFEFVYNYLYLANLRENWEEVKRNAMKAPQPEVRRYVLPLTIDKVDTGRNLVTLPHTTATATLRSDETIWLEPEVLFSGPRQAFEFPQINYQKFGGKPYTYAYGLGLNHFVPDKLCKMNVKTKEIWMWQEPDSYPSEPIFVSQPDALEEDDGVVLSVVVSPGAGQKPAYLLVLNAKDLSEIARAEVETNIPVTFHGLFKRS
Set-up: species or system CD-1 (albino) male mice
Experimental: The capability of amine derivative compounds to inhibit isomerase was determined by an in vivo murine isomerase assay. Brief exposure of the eye to intense light (“photobleaching” of the visual pigment or simply “bleaching”) is known to photo-isomerize almost all 11-cis-retinal in the retina. The recovery of 11-cis-retinal after bleaching can be used to estimate the activity of isomerase in vivo.
Delayed recovery, as represented by lower 11-cis-retinal oxime levels, indicates inhibition of isomerization reaction. Procedures were performed essentially as described by Golczak et al., Proc. Natl. Acad. Sci. USA 102:8162-67 (2005). See also Deigner et al., Science, 244: 968-71 (1989); Gollapalli et al., Biochim Biophys Acta. 1651: 93-101 (2003); Parish, et al., Proc. Natl. Acad. Sci. USA, 14609-13 (1998); Radu, et al., Proc Natl Acad Sci USA 101: 5928-33 (2004).
[…] Mice were orally gavaged with the several of the amine derivative compounds described herein. After 1-48 hours in the dark, the mice were exposed to photobleaching of 5,000 lux of white light for 10 minutes. The mice were allowed to recover 2 hours in the dark. The animals were then sacrificed by carbon dioxide inhalation. Retinoids were extracted from the eye and the regeneration of 11-cis-retinal was assessed at various time intervals.
All steps were performed in darkness with minimal redlight illumination (low light darkroom lights and redfiltered flashlights for spot illumination as needed) (see, e.g., Maeda et al., J. Neurochem 85:944-956, 2003; Van Hooser et al., J Biol Chem 277:19173-82, 2002). After the mice were sacrificed, the eyes were immediately removed and placed in liquid nitrogen for storage.
The eyes were placed in 500 μL of bis-tris propane buffer (10 mM, pH ˜7.3) and 20 μL of 0.8M hydroxylamine (pH˜7.3). The eyes were cut up into small pieces with small iris scissors and then thoroughly homogenized at 30000 rpm with a mechanical homogenizer (Polytron PT 1300 D) in the tube until no visible tissue remained. 500 μL of methanol and 500 μL of heptane were added to each tube. The tubes were attached to a vortexer so that the contents were mixed thoroughly for 15 minutes in room temperature. The organic phase was separated from the aqueous phase by centrifugation for 10 min at 13K rpm, 4° C. 240 μL of the solution from the top layer (organic phase) was removed and transferred to clean 300 μl glass inserts in HPLC vials using glass pipette and the vials were crimped shut tightly.
The samples were analyzed on an Agilent 1100 HPLC system with normal phase column: SILICA (Beckman Coutlier, dp 5 μm, […]). The running method has a flow rate of 1.5 ml/min; solvent components are 15% solvent 1 (1% isopropanol in ethyl acetate), and 85% solvent 2 (100% hexanes). Loading volume for each sample is 100 μl; detection wavelength is 360 nm. The area under the curve for 11-cis retinal oxime was calculated by Agilent Chemstation software and was recorded manually. Data processing was performed using Prizm software.
Positive control mice (no compound administered) were sacrificed fully dark-adapted and the eye retinoids analyzed. Light (bleached) control mice (no compound administered) were sacrificed and retinoids isolated and analyzed immediately after light treatment. The animals were orally gavaged with 1 mg/kg compound, then “photo-bleached” (5000 Lux white light for 10 minutes) at 4, 24 and 48 hours after dosing, and returned to darkness to allow recovery of the 11-cis-retinal content of the eyes. Mice were sacrificed 2 hours after bleaching, eyes were enucleated, and retinoid content was analyzed by HPLC.
A dose response in vivo isomerase inhibition study was performed with several of the amine derivative compounds described herein. Six-week old dark-adapted CD-1 (albino) male mice were orally gavaged with 0.03, 0.1, 0.3, 1 and 3 mg/kg of compound in sterile water as solution, and photobleached 4 hours after dosing. […]

First: NCCC(O)c1cccc(CCCCCCO)c1 (stereo not drawn) [Example 59, 6-(3-(3-amino-1-hydroxypropyl)phenyl)hexan-1-ol]
Second: CC(C)CCCc1cccc(C(O)CCN)c1 (stereo not drawn) [Example 90, 3-amino-1-(3-(4-methylpentyl)phenyl)propan-1-ol]
The “% Inhibition 1 mg/kg 4 h” value of the first is lower: 14% for the first, 84% for the second.

Going from `CCCC(O)(CCC)CCc1cccc([C@@H](O)CCN)c1` [Example 70, (S)-4-(3-(3-amino-1-hydroxypropyl)phenethyl)heptan-4-ol] to `CCCC(O)(CCC)CCc1cccc([C@H](O)CCN)c1` [Example 71, (R)-4-(3-(3-Amino-1-hydroxypropyl)phenethyl)heptan-4-ol], the “% Inhibition 1 mg/kg 4 h” value falls from 100% to 67%.

First: NCCC(O)c1cccc(CCc2ccccc2)c1 (stereo not drawn) [Example 85, 3-amino-1-(3-phenethylphenyl)propan-1-ol]
Second: CCCC(C)(O)CCc1cccc(C(O)CCN)c1 (stereo not drawn) [Example 109, 1-(3-(3-amino-1-hydroxypropyl)phenyl)-3-methylhexan-3-ol]
The “% Inhibition 1 mg/kg 4 h” value of the first is lower: 70% for the first, 79% for the second.

Going from `NCCOc1cccc(CCC2CCCCC2O)c1` (stereo not drawn) [Example 99, 2-(3-(2-aminoethoxy)phenethyl)cyclohexanol] to `NCCC(O)c1cccc(CCC2CCCCC2O)c1` (stereo not drawn) [Example 100, 2-(3-(3-amino-1-hydroxypropyl)phenethyl)cyclohexanol], the “% Inhibition 1 mg/kg 4 h” value falls from 22% to 9%.

First: NCCC(O)c1cccc(CCC2CCCCO2)c1 (stereo not drawn) [Example 110, 3-amino-1-(3-(2-(tetrahydro-2H-pyran-2-yl)ethyl)phenyl)propan-1-ol]
Second: CCC(O)(CC)CCc1cccc(C(O)CCN)c1 (stereo not drawn) [Example 113, 1-(3-(3-amino-1-hydroxypropyl)phenyl)-3-ethylpentan-3-ol]
The “% Inhibition 1 mg/kg 4 h” value of the first is lower: 61% for the first, 87% for the second.

Going from `CCCC(O)(CCC)CCc1cccc(SCCN)c1` [Example 134, 4-(3-(2-aminoethylthio)phenethyl)heptan-4-ol] to `CCCC(O)(CCC)CCc1cc(C(O)CCN)ccc1F` (stereo not drawn) [Example 140, 4-(5-(3-amino-1-hydroxypropyl)-2-fluorophenethyl)heptan-4-ol], the “% Inhibition 1 mg/kg 4 h” value rises from 6% to 87%.

`NCC#Cc1cccc(CS(=O)(=O)C2CCCCC2)c1` [Example 157, 3-(3-(cyclohexylsulfonylmethyl)phenyl)prop-2-yn-1-amine] and `NCCOc1cccc(C(=O)NC2CCCCC2)c1` [Example 164, 3-(2-aminoethoxy)-N-cyclohexylbenzamide] are the same in “% Inhibition 1 mg/kg 4 h” value: 0% for the first, 0% for the second.

For `NCCCc1cccc(CCC2CCCCC2O)c1` (stereo not drawn) [Example 187, 2-(3-(3-aminopropyl)phenethyl)cyclohexanol], the “% Inhibition 1 mg/kg 4 h” value was 9%.
